What was measured:
[1] = system: LNCaP cells (human prostate tumor cell line); experiment: Akt LNCaP proliferation assay (MTS); format: cell-based; settings: 2% fetal bovine serum, 48 hours, class symbols
Experimental: LNCaP cells (human prostate tumor cell line) were plated in 96 well plates (COSTAR, Corning, N.Y.) in 50 μL at 10,000 cells/well in RPMI (Media Tech, Manassas, Va.), 2% fetal bovine serum (Hyclone/Thermo, Logan, Utah) and incubated overnight at 37° C., 5% CO2. […] of compound solution were added at final concentrations of 1000 nM to 0.5 nM in 3 fold dilutions for IC50 determination and plates further incubated for 48 hours. 100 μL of Cell Titer 96® Aqueous reagent, from an MTS colorimetric method for determining the number of viable cells in proliferation (Cell titer 96, Promega, Madison, Wis.) was added for 2 hours at 37° C., 5% CO2. Each plate was mixed well and read on a SpectroMax M5 automated plate reader (Molecular Devices, Sunnyvale Calif.). The ability of the compound to inhibit proliferation was reported as the inhibitor concentration required for 50% inhibition (IC50 values) of total cell proliferation. See Table 8 for data related to compounds of the examples.

Full length Akt3 = target: T1, Full length Akt3 (Homo sapiens, UniProt Q9Y243); experiment: In vitro Akt kinase enzymatic assay (HTRF), Akt3; format: biochemical; settings: 0.6 nM Akt3, substrate solution with 5 mM ATP, 25° C. 1 hr
T1 construct: Full length Akt1 (cat #P2999), Akt2 (cat #PV3184), Akt3 (cat #PV3185); purchased PerkinElmer PV3185
T1 sequence (Q9Y243 whole entry): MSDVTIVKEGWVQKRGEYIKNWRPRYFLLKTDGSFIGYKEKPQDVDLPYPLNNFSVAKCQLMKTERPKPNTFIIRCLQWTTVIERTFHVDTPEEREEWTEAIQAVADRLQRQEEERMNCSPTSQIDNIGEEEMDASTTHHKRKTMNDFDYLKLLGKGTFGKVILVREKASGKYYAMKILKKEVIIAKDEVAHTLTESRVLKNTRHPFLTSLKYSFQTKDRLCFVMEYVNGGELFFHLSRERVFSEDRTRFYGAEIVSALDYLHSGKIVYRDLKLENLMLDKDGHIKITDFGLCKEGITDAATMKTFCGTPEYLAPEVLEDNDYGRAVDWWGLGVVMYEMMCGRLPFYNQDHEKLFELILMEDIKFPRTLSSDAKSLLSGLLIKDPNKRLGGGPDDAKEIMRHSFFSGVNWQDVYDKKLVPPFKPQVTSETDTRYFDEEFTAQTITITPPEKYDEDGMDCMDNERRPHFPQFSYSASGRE
In short: (§1)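 Full-length enzyme (0.4 nM Akt1 or 0.6 nM Akt2/Akt3 in the enzyme solution) was combined with a substrate solution of 0.1 μM ULight-Crosstide plus 5 mM ATP in pH 7.8 HEPES/MgCl2/DTT/Tween20 buffer and reacted 1 hr at 25° C. The EDTA stop contained Eu anti-phospho-Crosstide; IC50 was fitted from 11-point HTRF inhibition curves.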

Full length Akt2 = target: T2, Full length Akt2 (Homo sapiens, UniProt P31751); experiment: In vitro Akt kinase enzymatic assay (HTRF), Akt2; format: biochemical; settings: 0.6 nM Akt2, substrate solution with 5 mM ATP, 25° C. 1 hr
T2 construct: Full length Akt1 (cat #P2999), Akt2 (cat #PV3184); purchased PerkinElmer PV3184
T2 sequence (P31751 whole entry): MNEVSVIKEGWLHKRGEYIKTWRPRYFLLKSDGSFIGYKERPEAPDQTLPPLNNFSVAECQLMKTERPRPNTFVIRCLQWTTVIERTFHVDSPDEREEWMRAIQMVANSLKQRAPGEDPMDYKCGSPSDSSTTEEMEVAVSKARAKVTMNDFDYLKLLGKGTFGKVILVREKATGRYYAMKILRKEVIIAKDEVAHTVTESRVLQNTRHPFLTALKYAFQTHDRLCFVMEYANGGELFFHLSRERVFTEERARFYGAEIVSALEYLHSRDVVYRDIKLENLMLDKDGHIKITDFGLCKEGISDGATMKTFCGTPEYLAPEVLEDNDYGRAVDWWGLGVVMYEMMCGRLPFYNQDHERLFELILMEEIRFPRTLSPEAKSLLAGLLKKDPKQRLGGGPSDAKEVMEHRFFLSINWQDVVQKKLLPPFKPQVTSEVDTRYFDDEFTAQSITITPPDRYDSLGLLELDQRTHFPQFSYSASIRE
In short: as §1

Full length PKA = target: T3, Full length PKA (Homo sapiens, UniProt P17612); experiment: PKA in vitro enzymatic assay (HTRF); format: biochemical; settings: 0.035 nM enzyme solution, substrate solution with 5 mM ATP, 25° C. 1 hr
T3 construct: Full length PKA (cat #P2912); purchased Invitrogen P2912
In short: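 Reaction buffer was 50 mM HEPES pH 7.8, 10 mM MgCl2, 5 mM DTT and 0.005% Tween20. Enzyme solution was 0.035 nM, and substrate solution was 0.1 μM fluorescein-CREBtide with 5 mM ATP. After 1 h at 25°C, EDTA plus Tb anti-pS133 antibody was added, TR-FRET was read, and IC50 was fitted from 11-point, 3-fold % inhibition curves.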

Full length Akt1 = target: T4, Full length Akt1 (Homo sapiens, UniProt P31749); experiment: In vitro Akt kinase enzymatic assay (HTRF), Akt1; format: biochemical; settings: 0.4 nM Akt1, substrate solution with 5 mM ATP, 25° C. 1 hr
T4 construct: Full length Akt1 (cat #P2999); purchased PerkinElmer P2999
T4 sequence (P31749 whole entry): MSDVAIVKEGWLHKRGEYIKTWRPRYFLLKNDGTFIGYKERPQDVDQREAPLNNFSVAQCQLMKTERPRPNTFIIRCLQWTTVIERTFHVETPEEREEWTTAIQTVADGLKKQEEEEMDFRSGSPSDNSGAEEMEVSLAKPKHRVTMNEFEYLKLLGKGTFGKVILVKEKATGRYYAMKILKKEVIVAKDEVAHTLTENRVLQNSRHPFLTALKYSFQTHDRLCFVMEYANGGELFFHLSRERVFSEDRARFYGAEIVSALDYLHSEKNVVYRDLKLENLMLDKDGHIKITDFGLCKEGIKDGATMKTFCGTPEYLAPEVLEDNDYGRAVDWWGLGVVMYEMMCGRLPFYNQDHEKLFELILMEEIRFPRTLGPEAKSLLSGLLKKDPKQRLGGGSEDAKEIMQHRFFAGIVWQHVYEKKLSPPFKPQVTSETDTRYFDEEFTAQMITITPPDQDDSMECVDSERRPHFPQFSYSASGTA
In short: as §1

Row | Compound | IC50 [1] | IC50 (Full length Akt3) | IC50 (Full length Akt2) | IC50 (Full length PKA) | IC50 (Full length Akt1)
1 | Cn1ncc(Cl)c1-c1ccc2c(c1)CN([C@H](CN)Cc1ccsc1)C2=O [Example 68, 2-[(1S)-2-amino-1-(3-thienylmethyl)ethyl]-5-(4-chloro-1-methyl-1H-pyrazol-5-yl)isoindolin-1-one] | < 500 nM | < 500 nM | < 500 nM | 500 to 5000 nM | < 500 nM
2 | Cn1ncc(COC2CCC2)c1-c1cc2c(cn1)C(=O)N([C@H](CN)Cc1cc(F)cc(F)c1)C2 [Example 108, 2-[(1S)-2-amino-1-(3,5-difluoro-benzyl)ethyl]-6-[4-(cyclobutoxy-methyl)-1-methyl-1H-pyrazol-5-yl]-1,2-dihydro-3H-pyrrolo[3,4-c]pyridin-3-one] | < 500 nM | < 500 nM | < 500 nM | 500 to 5000 nM | < 500 nM
3 | Cn1ncc(F)c1-c1ccc2c(c1)CN([C@H](CN)Cc1cccc(F)c1)C2=O [Example 11, 2-[(1S)-2-amino-1-(3-fluorobenzyl)ethyl]-5-(4-fluoro-1-methyl-1H-pyrazol-5-yl)isoindolin-1-one] | < 500 nM | < 500 nM | < 500 nM | 500 to 5000 nM | < 500 nM
4 | Cn1nccc1-c1ccc2c(c1)CN([C@H](CN)Cc1ccsc1)C2=O [Example 81, 2-[(1S)-2-amino-1-(3-thienylmethyl)ethyl]-5-(1-methyl-1H-pyrazol-5-yl)isoindolin-1-one] | < 500 nM | < 500 nM | < 500 nM | 500 to 5000 nM | < 500 nM
5 | CCCOCc1cnn(C)c1-c1cc2c(cn1)C(=O)N([C@H](CN)Cc1cc(F)cc(F)c1)C2 [Example 107, 2-[(1S)-2-amino-1-(3,5-difluoro-benzyl)ethyl]-6-[4-(1-propoxy-methyl)-1-methyl-1H-pyrazol-5-yl]-1,2-dihydro-3H-pyrrolo[3,4-c]pyridin-3-one] | < 500 nM | < 500 nM | < 500 nM | > 5000 nM | < 500 nM
6 | Cn1ncc(Cl)c1-c1cc2c(cn1)C(=O)N([C@H](CN)Cc1ccccc1)C2 [Example 100, 2-((1S)-2-amino-1-benzylethyl)-6-(4-chloro-1-methyl-1H-pyrazol-5-yl)-1,2-dihydro-3H-pyrrolo[3,4-c]pyridin-3-one] | < 500 nM | < 500 nM | < 500 nM | 500 to 5000 nM | < 500 nM
7 | COCc1cnn(C)c1-c1cc2c(cn1)C(=O)N([C@H](CN)Cc1cc(F)cc(F)c1)C2 [Example 105, 2-[(1S)-2-amino-1-(3,5-difluoro-benzyl)ethyl]-6-(4-methoxymethyl-1-methyl-1H-pyrazol-5-yl)-1,2-dihydro-3H-pyrrolo[3,4-c]pyridin-3-one] | 500 to 5000 nM | < 500 nM | 500 to 5000 nM | > 5000 nM | < 500 nM
8 | Cn1ncc(Cl)c1-c1ccc2c(c1)CN([C@H](CN)Cc1ccccn1)C2=O [Example 66, 2-[(1S)-2-amino-1-(pyridin-2-ylmethyl)ethyl]-5-(4-chloro-1-methyl-1H-pyrazol-5-yl)isoindolin-1-one] | < 500 nM | < 500 nM | < 500 nM | 500 to 5000 nM | < 500 nM

The remaining lines, values ahead:

Row | IC50 [1] | IC50 (Full length Akt3) | IC50 (Full length Akt2) | IC50 (Full length PKA) | IC50 (Full length Akt1) | Compound
9 | < 500 nM | < 500 nM | < 500 nM | 500 to 5000 nM | < 500 nM | Cc1cnn(C)c1-c1ccc2c(c1)CN([C@H](CN)Cc1cccc(F)c1)C2=O [Example 3, 2-[(1S)-2-amino-1-(3-fluorobenzyl)ethyl]-5-(4-methyl-1-methyl-1H-pyrazol-5-yl)isoindolin-1-one]
10 | < 500 nM | < 500 nM | < 500 nM | 500 to 5000 nM | < 500 nM | Cn1ncc(Cl)c1-c1cc2c(cn1)C(=O)N([C@H](CN)Cc1cccc(F)c1)C2 [Example 92, 2-[(1S)-2-amino-1-(3-fluorobenzyl)ethyl]-6-(4-chloro-1-methyl-1H-pyrazol-5-yl)-1,2-dihydro-3H-pyrrolo[3,4-c]pyridin-3-one]
11 | < 500 nM | < 500 nM | < 500 nM | 500 to 5000 nM | < 500 nM | Cn1nccc1-c1cc2c(cn1)C(=O)N([C@H](CN)Cc1cccc(F)c1)C2 [Example 93, 2-[(1S)-2-amino-1-(3-fluorobenzyl)ethyl]-6-(1-methyl-1H-pyrazol-5-yl)-1,2-dihydro-3H-pyrrolo[3,4-c]pyridin-3-one]
12 | < 500 nM | < 500 nM | < 500 nM | > 5000 nM | < 500 nM | Cn1ncc(Cl)c1-c1ccc2c(c1)CN([C@H](CN)Cc1cccnc1)C2=O [Example 65, 2-[(1S)-2-amino-1-(pyridin-3-ylmethyl)ethyl]-5-(4-chloro-1-methyl-1H-pyrazol-5-yl)isoindolin-1-one]
13 | < 500 nM | < 500 nM | < 500 nM | > 5000 nM | < 500 nM | CC(C)OCc1cnn(C)c1-c1ccc2c(c1)CN([C@H](CN)Cc1cccc(F)c1)C2=O [Example 6, 2-[(1S)-2-amino-1-(3-fluorobenzyl)ethyl]-5-[4-(2-propoxymethyl)-1-methyl-1H-pyrazol-5-yl]isoindolin-1-one]
14 | < 500 nM | < 500 nM | < 500 nM | 500 to 5000 nM | < 500 nM | Cn1ncc(Br)c1-c1cc2c(cn1)C(=O)N([C@H](CN)Cc1cc(F)cc(F)c1)C2 [Example 104, 2-[(1S)-2-amino-1-(3,5-difluoro-benzyl)ethyl]-6-(4-broro-1-methyl-1H-pyrazol-5-yl)-1,2-dihydro-3H-pyrrolo[3,4-c]pyridin-3-one]
15 | < 500 nM | < 500 nM | < 500 nM | > 5000 nM | < 500 nM | CC(C)OCc1cnn(C)c1-c1cc2c(cn1)C(=O)N([C@H](CN)Cc1cccc(F)c1)C2 [Example 95, 2-[(1S)-2-amino-1-(3-fluorobenzyl)ethyl]-6-[4-(2-propoxymethyl)-1-methyl-1H-pyrazol-5-yl]-1,2-dihydro-3H-pyrrolo[3,4-c]pyridin-3-one]
16 | < 500 nM | < 500 nM | < 500 nM | 500 to 5000 nM | < 500 nM | Cc1cnn(C)c1-c1cc2c(cn1)C(=O)N([C@H](CN)Cc1cccc(F)c1)C2 [Example 94, 2-[(1S)-2-amino-1-(3-fluorobenzyl)ethyl]-6-(4-methyl-1-methyl-1H-pyrazol-5-yl)-1,2-dihydro-3H-pyrrolo[3,4-c]pyridin-3-one]
17 | < 500 nM | < 500 nM | < 500 nM | 500 to 5000 nM | < 500 nM | Cn1nccc1-c1cc2c(cn1)C(=O)N([C@H](CN)Cc1cc(F)cc(F)c1)C2 [Example 102, 2-[(1S)-2-amino-1-(3,5-difluoro-benzyl)ethyl]-6-(1-methyl-1H-pyrazol-5-yl)-1,2-dihydro-3H-pyrrolo[3,4-c]pyridin-3-one]
18 | < 500 nM | < 500 nM | < 500 nM | > 5000 nM | < 500 nM | COCc1cnn(C)c1-c1ccc2c(c1)CN([C@H](CN)Cc1cc(F)cc(F)c1)C2=O [Example 43, 2-[(1S)-2-amino-1-(3,5-difluorobenzyl)ethyl]-5-(4-methoxymethyl-1-methyl-1H-pyrazol-5-yl)isoindolin-1-one]
